Test system: CYP2C9
Experiment: in vitro
Details: Sprague-Dawley, rat, microsomes
[1] = pH 7.4, % inhibition of CYP2C9 activity
[2] = pH 7.4, % inhibition of CYP2C9 activity, test article 1 μM, tolbutamide 1 mM, rat liver microsomes
[3] = pH 7.4, % inhibition of CYP2C9 activity, test article 10 μM, tolbutamide 1 mM, rat liver microsomes
[4] = pH 7.4, % inhibition of CYP2C9 activity, test article 100 μM, tolbutamide 1 mM, rat liver microsomes

Structure (SMILES) | inhibition at 7.5 min, 1 μM [1] [%] | inhibition at 7.5 min, 10 μM [1] [%] | inhibition at 7.5 min, 100 μM [1] [%] | other results
COc1cc(O)c2c(=O)cc(-c3ccc(O)cc3)oc2c1 [Genkwanin] | 30.9 | 37.4 |  | 
O=C1C[C@@H](c2ccc(O[C@@H]3O[C@H](CO)[C@@H](O)[C@H](O)[C@H]3O)cc2)Oc2cc(O)ccc21 [Liquiritin] | 18.1 | 18.4 | 24.8 | 
O=C1c2c(O)cc(O)cc2O[C@H](c2ccc(O)c(O)c2)[C@H]1O [(+)-Taxifolin] |  |  |  | inhibition at 7.5 min, 1 μM [2]: -1.29%; inhibition at 7.5 min, 10 μM [3]: 31.2%; inhibition at 7.5 min, 100 μM [4]: 50.5%
O=C1C[C@@H](c2ccc(O)c(O)c2)Oc2cc(O)cc(O)c21 [eriodictyol] | 32.8 | 28.6 | 69.6 | 
C=C[C@H]1[C@H](O[C@@H]2O[C@H](CO)[C@@H](O)[C@H](O)[C@H]2O)OC=C2C(=O)OCC[C@]21O [Swertiamarin] | 16.3 | 16.6 | 18.4 | 
O=c1c(O)c(-c2ccc(O)cc2O)oc2cc(O)cc(O)c12 [Morin] | 14.3 | 11.6 | 51 | 
O=c1c(O)c(-c2cc(O)c(O)c(O)c2)oc2cc(O)cc(O)c12 [myricetin] | -3.19 | 10.6 | 88.8 | 
O=c1c(O[C@@H]2O[C@H](CO)[C@@H](O)[C@H](O)[C@H]2O)c(-c2ccc(O)c(O)c2)oc2cc(O)cc(O)c12 [isoquercitrin] | 20.9 | 27 | 61.8 | 
CC(C)[C@@H](C)/C=C/[C@@H](C)[C@H]1CC[C@H]2C3=CC=C4C[C@@H](O)CC[C@]4(C)[C@H]3CC[C@]12C [ergosterol] | 1 | 8.12 |  | inhibition at 7.5 min, 30 μM [1]: 3.57%
CC(=O)OCCCc1ccccc1 [3-Phenylpropyl Acetate] | 36.6 |  | 42.6 | 
O=c1cc(-c2ccc(O)cc2)oc2cc(O)cc(O)c12 [apigenin] |  |  |  | inhibition at 7.5 min, 2.5 μM [1]: 21.7%; inhibition at 7.5 min, 25 μM [1]: 76.9%
O=C(O)c1ccc(O)c(O)c1 [protocatechuic acid] | 20.3 | 16.2 |  | 
O=c1cc(-c2ccccc2)oc2cc(O)c(O)c(O)c12 [Baicalein] |  |  |  | inhibition at 7.5 min, 2.5 μM [1]: 1.76%; inhibition at 7.5 min, 25 μM [1]: 5.06%
COc1ccc([C@@H]2CC(=O)c3c(O)cc(O)cc3O2)cc1O [Hesperetin] | -3.58 | 29.1 |  | 
O=C(O)[C@H]1O[C@@H](Oc2cc3oc(-c4ccccc4)cc(=O)c3c(O)c2O)[C@H](O)[C@@H](O)[C@@H]1O [baicalin] |  |  |  | inhibition at 7.5 min, 2.5 μM [1]: -5.36%; inhibition at 7.5 min, 25 μM [1]: 7.77%
COc1ccc(-c2coc3cc(O)ccc3c2=O)cc1 [Formononetin] | 23.3 | 30.6 |  | inhibition at 7.5 min, 50 μM [1]: 57.9%
O=c1c(-c2ccc(O)cc2)coc2cc(O)ccc12 [Daidzein] | 1.35 | 13.4 |  | inhibition at 7.5 min, 25 μM [1]: 15.7%
C[C@@H]1O[C@@H](OC[C@H]2O[C@@H](Oc3c(-c4ccc(O)c(O)c4)oc4cc(O)cc(O)c4c3=O)[C@H](O)[C@@H](O)[C@@H]2O)[C@H](O)[C@H](O)[C@H]1O [Rutin] | -2.59 | -14 | -6.46 | 

Structure (SMILES) | inhibition at 7.5 min, 1 μM [1] [%] | inhibition at 7.5 min, 10 μM [1] [%] | inhibition at 7.5 min, 100 μM [1] [%] | other results
COc1cc(-c2oc3cc(O)cc(O)c3c(=O)c2O)ccc1O [Isorhamnetin] |  |  |  | inhibition at 7.5 min, 1 μM (pH 7.4): 19.6%; inhibition at 7.5 min, 10 μM (pH 7.4): 61.5%; inhibition at 7.5 min, 75 μM (pH 7.4): 65.7%
O=c1cc(-c2ccccc2)oc2cc(O)cc(O)c12 [Chrysin] |  |  |  | inhibition at 7.5 min, 1 μM (pH 7.4): 6.86%; inhibition at 7.5 min, 10 μM (pH 7.4): 60.6%; inhibition at 7.5 min, 50 μM (pH 7.4): 75.1%
CC1(C)[C@@H](O[C@H]2O[C@H](C(=O)O)[C@@H](O)[C@H](O)[C@H]2O[C@@H]2O[C@H](C(=O)O)[C@@H](O)[C@H](O)[C@H]2O)CC[C@]2(C)[C@H]3C(=O)C=C4[C@@H]5C[C@@](C)(C(=O)O)CC[C@]5(C)CC[C@@]4(C)[C@]3(C)CC[C@@H]12 [glycyrrhizin] | 5.14 | 2.23 | 4.87 | 
CC1(C)CC[C@]2(C(=O)O)CC[C@]3(C)C(=CC[C@@H]4[C@@]5(C)CC[C@H](O)C(C)(C)[C@@H]5CC[C@]43C)[C@@H]2C1 [Oleanolic acid] |  |  |  | inhibition at 7.5 min, 1 μM [2]: 16.8%; inhibition at 7.5 min, 10 μM [3]: 42.4%; inhibition at 7.5 min, 100 μM [4]: 41.1%
O=c1cc(-c2ccc(O)cc2)oc2cc(O)c([C@@H]3O[C@H](CO)[C@@H](O)[C@H](O)[C@H]3O)c(O)c12 [isovitexin] | 35.6 | 37.4 | 45.4 | 
O=c1c(-c2ccc(O)cc2)coc2cc(O)cc(O)c12 [Genistein] |  |  |  | inhibition at 7.5 min, 1 μM [2]: 49.6%; inhibition at 7.5 min, 10 μM [3]: 67.7%; inhibition at 7.5 min, 100 μM [4]: 82.7%; inhibition at 7.5 min, 1 μM (pH 7.4, % inhibition of tolbutamide metabolism in microsomes, 1 μM, reaction time 7.5 minute, n = 3): 49.6%; inhibition at 7.5 min, 100 μM (pH 7.4, % inhibition of tolbutamide metabolism in microsomes, 100 μM, reaction time 7.5 minute, n = 3): 82.7%; inhibition at 7.5 min, 10 μM (pH 7.4, % inhibition of tolbutamide metabolism in microsomes, 10 Mm, reaction time 7.5 minute, n = 3): 67.7%; inhibition at 7.5 min, 1 μM (pH 7.4, % inhibition, 1 μM (low concentration)): 49.6%; inhibition at 7.5 min, 10 μM (pH 7.4, % inhibition, 10 μM (mid concentration)): 67.7%; inhibition at 7.5 min, 100 μM (pH 7.4, % inhibition, 100 μM (high concentration)): 82.7%
O=C(O)c1cc(O)c(O)c(O)c1 [gallic acid] | -3.05 | -2.47 | -0.97 | 
O=c1c(-c2ccc(O)cc2)coc2cc(O[C@@H]3O[C@H](CO)[C@@H](O)[C@H](O)[C@H]3O)ccc12 [Daidzin] |  |  |  | inhibition at 7.5 min, 1 μM (pH 7.4): 0.95%; inhibition at 7.5 min, 10 μM (pH 7.4): -2.46%; inhibition at 7.5 min, 25 μM (pH 7.4): -1.16%; inhibition at 7.5 min, 100 μM (pH 7.4): -1.33%
O=c1c(O)c(-c2ccc(O)c(O)c2)oc2cc(O)cc(O)c12 [quercetin] |  |  |  | inhibition at 7.5 min, 1 μM (pH 7.4): 15.1%; inhibition at 7.5 min, 10 μM (pH 7.4): 44.8%; inhibition at 7.5 min, 100 μM (pH 7.4): 91.9%
C[C@@]12C[C@@]3(O)O[C@@H](O1)[C@]1(COC(=O)c4ccccc4)[C@H]3C[C@@]12O[C@@H]1O[C@H](CO)[C@@H](O)[C@H](O)[C@H]1O [paeoniflorin] | 10.1 | 0.7 | -1.77 | 
C[C@@H]1O[C@@H](Oc2c(-c3ccc(O)c(O)c3)oc3cc(O)cc(O)c3c2=O)[C@H](O)[C@H](O)[C@H]1O [Quercitrin] |  |  |  | inhibition at 7.5 min, 1 μM (pH 7.4): 24.2%; inhibition at 7.5 min, 10 μM (pH 7.4): 21.1%; inhibition at 7.5 min, 100 μM (pH 7.4): 13.5%
O=C(O)/C=C/c1ccccc1 [trans-cinnamic acid] | 26.9 | 15.8 | 26.1 | 
C=CC(=C)CCC=C(C)C [β-Myrcene] | 24.1 | 16.6 | 29.9 | 
O=c1cc(-c2ccc(O)c(O)c2)oc2cc(O)cc(O)c12 [luteolin] | 20.1 | 37.9 | 93.2 | 
COc1ccc(-c2cc(=O)c3c(O)cc(O[C@@H]4O[C@H](CO[C@@H]5O[C@@H](C)[C@H](O)[C@@H](O)[C@H]5O)[C@@H](O)[C@H](O)[C@H]4O)cc3o2)cc1O [Diosmin] | 1.51 | 4.7 |  | 
O=c1c(O)c(-c2ccc(O)cc2)oc2cc(O)cc(O)c12 [kaempferol] | -22.3 | 38.3 |  | 
CC(Cc1ccc(O)c(O)c1)C(C)Cc1ccc(O)c(O)c1 (stereo not shown) [Nordihydroguaiaretic acid] | -16.1 | 9.76 | 81.2 | 

From patent US20130184227A1, “Cytochrome P450 2C9 Inhibitors” (priority 2004, published 2013)
